This note sets out measurements from patent US8349827B2, “Substituted dipyrido-pyrimido-diazepine and benzo-pyrido-pyrimido compounds” (ArQule, Inc., priority 2009, dated 2013).

For one data set, the system named is DLD-1. The experiment in a line: MTS assay, DLD-1 cells. In kind it is cell-based. The note with it: Homo sapiens, 72 hours. The method, boiled down: (§1)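 First, seed 3000 cells per well in low-serum (1% FBS) DMEM and culture 18 h. Next, add compounds prepared at 300× in DMSO and diluted 1:40 in DMEM; incubate 72 h. Finally, add MTS/PMS for 4 h and measure absorbance at 492 nm.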

Another data set has as its system KATO III. Briefly: MTS assay, KATO III cells. In kind it is cell-based. The settings on record: Homo sapiens, 72 hours. In a few lines:
as §1
On the technique in general: Formazan colour is commonly taken as a measure of viable cells.

In the next data set the test system is MDA-MB-231. Briefly: MTS assay, MDA-MB-231 cells. It counts as cell-based. The note with it: Homo sapiens, 72 hours. In a few lines:
as §1

In a further data set the test system is NCI-H1299. Briefly: MTS assay, NCI-H1299 cells. In kind it is cell-based. The settings on record: Homo sapiens, 72 hours. The method, boiled down: as §1
The next data set deals with PACA-2. The experiment in a line: MTS assay, PACA-2 cells. It counts as cell-based. The note with it: 72 hours. In a few lines: as §1
For another data set, the target named is ABL T315I (Homo sapiens, UniProt P00519, T315I). The experiment in a line: ABL Kinase Activity Assay (Elisa), ABL T315I. The note with it: ATP 100 μM, read-out: Abl(T315I) Enzymetic assay (Elisa) % inhibition. In kind it is biochemical. The method, boiled down: (§2)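 Recombinant ABL or ABL T315I (0.089 nM final) preincubated 20 min with compound, then reacted 1 h at room temperature with 100 μM ATP and 128 nM biotinylated AblTide in Tris pH 7.0/MgCl2 buffer. Phosphopeptide captured on streptavidin and detected by anti-phosphotyrosine ELISA with alkaline phosphatase secondary and Attophos fluorescence.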

The target of a further data set is ABL (Homo sapiens, UniProt P00519). The experiment in a line: ABL Kinase Activity Assay (Elisa), ABL. The note with it: ATP 100 μM, read-out: Abl Enzymetic assay (Elisa) % inhibition. In kind it is biochemical. The method, boiled down: as §2
Another data set deals with PC-3. Briefly: MTS assay, PC-3 cells. It counts as cell-based. The settings on record: Homo sapiens, 72 hours. The method, boiled down: as §1

The structures appear in SMILES notation. Counter-ions that a name gives are not always drawn.

Regarding `CN(C)CCCCCNc1ncc2c(n1)-c1cccnc1Nc1cnccc1-2` (as salt: TFA) [Example 48, N′-9H-dipyrido[2,3-b:4′,3′-f]pyrimido[4,5-d]azepin-2-yl-N,N-dimethylpentane-1,5-diamine], the melting point (as a rule, the temperature of the solid-liquid transition) lay in the range of 133 to 136 °C.
The same measure, in the same setting: for `c1ccc(CNc2ncc3c(n2)-c2cccnc2Nc2cnccc2-3)nc1` (as salt: TFA) [Example 49, N-(pyridin-2-ylmethyl)-9H-dipyrido[2,3-b:4′,3′-f]pyrimido[4,5-d]azepin-2-amine] the value was 253 to 255 °C; for `CN(C)CCCNc1ncc2c(n1)-c1cccnc1Nc1cnccc1-2` (as salt: TFA) [Example 50, N′-9H-dipyrido[2,3-b:4′,3′-f]pyrimido[4,5-d]azepin-2-yl-N,N-dimethylpropane-1,3-diamine], more than 253 °C; for `CN(C)CCCCNc1ncc2c(n1)-c1cccnc1Nc1cnccc1-2` (as salt: TFA) [Example 51, N′-9H-dipyrido[2,3-b:4′,3′-f]pyrimido[4,5-d]azepin-2-yl-N,N-dimethylbutane-1,4-diamine], 154 to 156 °C.
The same measure, in the same setting: the figure for `c1cnc2c(c1)-c1nc(NC3CCNCC3)ncc1-c1ccncc1N2` (as salt: TFA) [Example 59, N-piperidin-4-yl-9H-dipyrido[2,3-b:4′,3′-f]pyrimido[4,5-d]azepin-2-amine] is 189 to 191 °C; for `c1cnc2c(c1)-c1nc(NCC3CCNCC3)ncc1-c1ccncc1N2` (as salt: TFA) [Example 60, N-(piperidin-4-ylmethyl)-9H-dipyrido[2,3-b:4′,3′-f]pyrimido[4,5-d]azepin-2-amine] it is 151 to 153 °C.
Consider `Clc1cccc(CNc2ncc3c(n2)-c2cccnc2Nc2cnccc2-3)c1` [Example 1, N-(3-chlorobenzyl)-9H-dipyrido[2,3-b:4′,3′-f]pyrimido[4,5-d]azepin-2-amine], for which the melting point fell in the range of 195 to 196 °C. Moreover, the inhibition (in general, the relative decrease from the control value, in per cent) at 10 µM in the data set with DLD-1 is 50 to 79%. Also, in the data set on KATO III, the inhibition at 10 µM fell in the range of 80 to 100%. Besides, the inhibition at 10 µM in the data set on MDA-MB-231 was less than 50%. Besides, in the data set with NCI-H1299, the inhibition at 10 µM was in the range of 50 to 79%. In the data set with PACA-2, the inhibition at 10 µM is less than 50%. Besides, the inhibition at 10 µM at ABL T315I fell in the range of 80 to 100%. The inhibition at 10 µM at ABL fell in the range of 80 to 100%.
As to `Fc1ccc(CNc2ncc3c(n2)-c2cccnc2Nc2cnccc2-3)c(F)c1` [Example 2, N-(2,4-difluorobenzyl)-9H-dipyrido[2,3-b:4′,3′-f]pyrimido[4,5-d]azepin-2-amine], the melting point fell in the range of 264 to 266 °C. In addition, the inhibition at 10 µM in the data set with DLD-1 was less than 50%. The inhibition at 10 µM in the data set on KATO III lay within 50 to 79%. The molecule further displayed an inhibition at 10 µM with MDA-MB-231 of less than 50%. For the same molecule, in the data set with NCI-H1299, the inhibition at 10 µM fell in the range of 50 to 79%. In addition, the inhibition at 10 µM in the data set with PACA-2 was less than 50%. Also, on ABL T315I, the inhibition at 10 µM fell in the range of 80 to 100%. Also, the inhibition at 10 µM on ABL is 80 to 100%.
As to `c1cnc2c(c1)-c1nc(NC3CCCCC3)ncc1-c1ccncc1N2` [Example 35, N-cyclohexyl-9H-dipyrido[2,3-b:4′,3′-f]pyrimido[4,5-d]azepin-2-amine], the inhibition at 10 µM was less than 50% in the data set on DLD-1; 50 to 79% in the data set with KATO III; less than 50% with MDA-MB-231; 50 to 79% with NCI-H1299; less than 50% with PACA-2; less than 50% in the data set with PC-3. For the same molecule, the inhibition at 10 µM at ABL T315I and on ABL was 80 to 100% in each case.
As to `Fc1cccc(CNc2ncc3c(n2)-c2cccnc2Nc2cnccc2-3)c1` [Example 39, N-(3-fluorobenzyl)-9H-dipyrido[2,3-b:4′,3′-f]pyrimido[4,5-d]azepin-2-amine], the inhibition at 10 µM in the data set on DLD-1, with KATO III, in the data set with MDA-MB-231, in the data set on NCI-H1299, in the data set on PACA-2 and in the data set with PC-3 was 80 to 100% in each case. In addition, the inhibition at 10 µM at ABL T315I and at ABL was 80 to 100% throughout.
On to `Cc1cccc(CNc2ncc3c(n2)-c2cccnc2Nc2cnccc2-3)c1` [Example 40, N-(3-methylbenzyl)-9H-dipyrido[2,3-b:4′,3′-f]pyrimido[4,5-d]azepin-2-amine], for which the inhibition at 10 µM with DLD-1 is 50 to 79%; in the data set with KATO III, 50 to 79%; in the data set with MDA-MB-231, 50 to 79%; in the data set on NCI-H1299, 50 to 79%; in the data set on PACA-2, 80 to 100%; in the data set on PC-3 it was 80 to 100%. The inhibition at 10 µM on ABL T315I and on ABL was 80 to 100% throughout.
On to `COc1ccc(CCNc2ncc3c(n2)-c2cccnc2Nc2cnccc2-3)cc1` [Example 42, N-[2-(4-methoxyphenyl)ethyl]-9H-dipyrido[2,3-b:4′,3′-f]pyrimido[4,5-d]azepin-2-amine], for which the inhibition at 10 µM in the data set on DLD-1 is 50 to 79%; in the data set with KATO III, 80 to 100%; with MDA-MB-231, less than 50%; in the data set with NCI-H1299, less than 50%; with PACA-2, less than 50%; in the data set on PC-3, less than 50%. Besides, the inhibition at 10 µM at ABL T315I and on ABL was 80 to 100% each time.
With `CN(C)CCCCNc1ncc2c(n1)-c1cccnc1Nc1cnccc1-2` [Example 51, N′-9H-dipyrido[2,3-b:4′,3′-f]pyrimido[4,5-d]azepin-2-yl-N,N-dimethylbutane-1,4-diamine], the inhibition at 10 µM in the data set on DLD-1 is less than 50%; in the data set with KATO III, 80 to 100%; with MDA-MB-231 it was 80 to 100%; in the data set with NCI-H1299, less than 50%; with PACA-2 it was less than 50%; with PC-3, 80 to 100%. Moreover, the results for the inhibition at 10 µM at ABL T315I and on ABL were less than 50% and 50 to 79%, respectively.
`Nc1ccc(-c2ncc3c(n2)-c2cccnc2Nc2cnccc2-3)cc1` [Example 53, 4-(9H-dipyrido[2,3-b:4′,3′-f]pyrimido[4,5-d]azepin-2-yl)aniline] registered a melting point of more than 300 °C. The inhibition at 10 µM in the data set on DLD-1 is less than 50%. For the same molecule, the inhibition at 10 µM in the data set with KATO III was less than 50%. Moreover, the inhibition at 10 µM in the data set with MDA-MB-231 was less than 50%. In addition, the inhibition at 10 µM in the data set with NCI-H1299 is less than 50%. Also, the inhibition at 10 µM with PACA-2 was less than 50%. For the same molecule, the inhibition at 10 µM in the data set with PC-3 is less than 50%.
In the case of `c1ccc(-c2ncc3c(n2)-c2cccnc2Nc2cnccc2-3)cc1` [Example 54, 2-phenyl-9H-dipyrido[2,3-b:4′,3′-f]pyrimido[4,5-d]azepine], the melting point is more than 300 °C. In the data set with DLD-1, this molecule gave an inhibition at 10 µM of less than 50%. Besides, the inhibition at 10 µM with KATO III is less than 50%. The molecule also showed an inhibition at 10 µM with MDA-MB-231 of less than 50%. This molecule returned an inhibition at 10 µM in the data set with NCI-H1299 of less than 50%. Besides, the inhibition at 10 µM in the data set on PC-3 was less than 50%.
`c1cnc2c(c1)-c1nc(NCc3ccnc4[nH]ccc34)ncc1-c1ccncc1N2` [Example 55, N-(1H-pyrrolo[2,3-b]pyridin-4-ylmethyl)-9H-dipyrido[2,3-b:4′,3′-f]pyrimido[4,5-d]azepin-2-amine] yielded a melting point of 208 to 211 °C. The inhibition at 10 µM in the data set on DLD-1 is 80 to 100%. Moreover, in the data set on KATO III, the inhibition at 10 µM was in the range of 80 to 100%. The molecule also came in with an inhibition at 10 µM in the data set with MDA-MB-231 of less than 50%. The inhibition at 10 µM in the data set on NCI-H1299 is 50 to 79%. In the data set with PACA-2, this molecule came in with an inhibition at 10 µM of 80 to 100%. The molecule further came in with an inhibition at 10 µM in the data set with PC-3 of 80 to 100%.
`OCCc1cccc(Nc2ncc3c(n2)-c2cccnc2Nc2cnccc2-3)c1` [Example 56, 2-[3-(9H-dipyrido[2,3-b:4′,3′-f]pyrimido[4,5-d]azepin-2-ylamino)phenyl]ethanol]: the melting point was in the range of 208 to 211 °C. This molecule also yielded an inhibition at 10 µM in the data set with DLD-1 of 50 to 79%. The same molecule had an inhibition at 10 µM with KATO III of 80 to 100%. In the data set on MDA-MB-231, the inhibition at 10 µM is less than 50%. For the same molecule, the inhibition at 10 µM in the data set with NCI-H1299 lay in the range of 50 to 79%. In the data set with PACA-2, the inhibition at 10 µM was 80 to 100%. This molecule also showed an inhibition at 10 µM in the data set on PC-3 of less than 50%.
With `c1cnc2c(c1)-c1nc(NCC3CCNCC3)ncc1-c1ccncc1N2` [Example 60, N-(piperidin-4-ylmethyl)-9H-dipyrido[2,3-b:4′,3′-f]pyrimido[4,5-d]azepin-2-amine], the inhibition at 10 µM in the data set on DLD-1 lay within 50 to 79%; in the data set with KATO III it was 80 to 100%; in the data set with MDA-MB-231 it was 80 to 100%; in the data set on NCI-H1299, 50 to 79%; in the data set on PACA-2 it was 80 to 100%; in the data set with PC-3, 80 to 100%. Moreover, the inhibition at 10 µM at ABL T315I is less than 50%; on ABL, 50 to 79%.
Turning to `OCCc1ccc(Nc2ncc3c(n2)-c2cccnc2Nc2ccccc2-3)cc1` [Example 63, 2-[4-(9H-pyrido[2,3-b]pyrimido[4,5-d][1]benzazepin-2-ylamino)phenyl]ethanol], the inhibition at 10 µM in the data set with DLD-1 was 50 to 79%; with KATO III, 50 to 79%; in the data set with MDA-MB-231 it was less than 50%; in the data set with NCI-H1299, less than 50%; in the data set on PACA-2, 80 to 100%; in the data set on PC-3, 50 to 79%. For the same molecule, the inhibition at 10 µM at ABL T315I and on ABL was less than 50% in each case.
